The values below come from US20110207685A1, “Oral Formulations of Chemotherapeutic Agents” (priority 2008, published 2011).

Values after ≈ are worked out from the molar mass of the structure shown. Like-named read-outs stand apart in the source and are kept apart here.

For data set [1] the following is noted: free drug; cited from earlier work.
Another data set concerns HT29 cells. Briefly: In vitro cytotoxicity on HT29 cells. Format: cell-based. The following applies: Homo sapiens.
Another data set can be described thus: in vivo. The note with it: mouse, plasma.
Data set [2] in a line: Tolerance study (Step 1), relative body weight. The following applies: oral IRN alone group (100 mg/kg po qd×5). Format: in vivo, nude mice. The procedure:
When subcutaneous HT29 xenografts are detectable and reach a mean tumor volume of 150 mm3, groups of mice are randomly affected to the treatments. Mice without tumors were eliminated.
Mice in the control group received vehicle under a 750 μl volume.
Toxicity of the different treatments are determined as: body weight loss percent (% BWL max)=100−(mean BWx/mean BW1x 100), where BWx is the mean BW at the day of maximal loss during the treatment and BW1 is the mean BW on the 1st day of treatment.
All animals are weighted during the whole treatment period, in order to adjust the volume of drug administration and to calculate the percent body weight loss due to the different treatments.

Data set [3] can be described thus: Oral MTTD (tolerance) study on xenografted mice. The note with it: for Clinical symptoms: po, J = 1 to 5, mice with s.c. HT-29 tumor. In kind it is in vivo. How it is done:
A tolerance and efficacy study on xenografted mice, in order to mimic as close as possible the in vivo model of colonic tumor, was carried out. As xenografted mice are very sensitive, the MTTD and efficacy study was done on mice with a subcutaneously implanted HT-29 colorectal human tumor cells.

A short description of data set [4]: MTTD study, one administration per week during three weeks. Format: in vivo, mice. The following applies: J = 0, 7, 14. The procedure: The schedule of the MTTD studies was one administration per week during three weeks. Each dose was tested on a group of 3 animals and the animals were monitored for 2 weeks after the end of the last treatment, clinical toxicity signs were observed and the animals weight taken every two days.

A short description of a further data set: physchem. The note with it: phosphate buffer (control for the cyclodextrin mixtures), aqueous buffer.

Procedure for in vivo: Three mice were used per time-point. Only one sampling was performed on the control group.

On to `COc1cccc2c1C(=O)c1c(O)c3c(c(O)c1C2=O)C[C@@](O)(C(=O)CO)C[C@@H]3O[C@H]1C[C@H](N)[C@H](O)[C@H](C)O1` [doxorubicin, Doxorubicin], for which, in data set [1], the “oral bioavailability compare to i. v. bioavailability” value is on record as “about 5%”.
Usually AUC stands for concentration integrated over time. Read a high AUC as high exposure. As a reminder, the bioavailability is the share of a dose that reaches the circulation, judged against a reference dose that is usually intravenous. Low values mean little systemic uptake, high ones much systemic uptake. By Cmax is commonly meant the maximum level reached in the sampled fluid or tissue. As usually defined, the Tmax is the time from dosing to the highest level. `CCc1c2c(nc3ccc(OC(=O)N4CCC(N5CCCCC5)CC4)cc13)-c1cc3c(c(=O)n1C2)COC(=O)[C@]3(O)CC` [IRN, Irinotecan]: the IC50 in the data set on HT29 cells (HT-29, 96 h, read-out: IC50 [IRN], experiment GF411, HT29 cells, 4 days contact, as IRN concentration) is 0.75 µg/mL (≈ 1.28 µM); in the data set with HT29 cells (HT-29, 96 h, read-out: IC50 [IRN], experiment GF464, HT29 cells, 4 days contact, as IRN concentration), 0.8 µg/mL (≈ 1.36 µM); with HT29 cells (HT-29, 96 h, read-out: IC50 [IRN], experiment GF522, HT29 cells, 4 days contact, as IRN concentration) it was 0.85 µg/mL (≈ 1.45 µM); with HT29 cells (HT-29, read-out: Mean IC 50 [IRN], mean of three experiments, HT29 cells, as IRN concentration) it was 0.8 µg/mL (≈ 1.36 µM). In addition, the AUC in the data set “in vivo” (iv, 20 mg/kg) was found to be 1280 ng·h/mL; in the data set “in vivo” (po, 100 mg/kg), 1740 ng·h/mL. For the same compound, the bioavailability in “in vivo” (oral, 100 mg/Kg) stood at 27.1%. This compound gave a peak concentration (Cmax) in “in vivo” (po, 100 mg/kg) of 477 ng/mL. For the same compound, in the data set “in vivo” (po, 100 mg/kg), the Tmax was determined as 2.06 h. Further, the body weight loss result in data set [2] is “more than 15%”. Further, the “toxicity / tolerance” value in data set [3] (orally every day for 5 days, xenografted mice) is “induced an important weight loss”. In addition, the Clinical symptoms entry in data set [3] (100 mg/kg BW) is “Weight loss, but mice”; in data set [3] (200 mg/kg BW) it was “Important weight loss”; in data set [4] (iv, 25 mg/kg BW), “No clinical sign”; in data set [4] (po, 200 mg/kg BW), “No clinical sign”.
What is called solubility is the dissolved amount per volume that the medium holds. Consider `CC(=O)O[C@@]12CO[C@@H]1C[C@H](O)[C@@]1(C)C(=O)[C@H](O)C3=C(C)[C@@H](OC(=O)[C@H](O)[C@@H](NC(=O)OC(C)(C)C)c4ccccc4)C[C@@](O)([C@@H](OC(=O)c4ccccc4)[C@H]21)C3(C)C` [docetaxel], for which the solubility in the data set “physchem” was 1.9 ± 0.1 µg/mL (≈ 2.35 µM).
